Measured values published in article PMC12247020, “A Cyclized Helix‐Loop‐Helix Peptide as a Molecular Scaffold for Cell‐Membrane Permeable Inhibitors for the Interaction Between Estrogen Receptor α and Coactivator SRC1” (Chembiochem, 2025).
Bridge positions count the residues as written; N and C are the ends. Peptide text beside a SMILES is read from it.

Experiments:
[1] = molecular target: T1, interaction between ERα/LBD and FL‐SRC1Box2 (Homo sapiens, UniProt P03372); test: FP competition: inhibition of the ERα/LBD–FL‐SRC1Box2 interaction; format: binding; details: ERα/LBD 20 μM, four parameter logistic equation (Fig S5C)
T1 construct: Recombinant ERα/LBD (ERα^302–552) was prepared as previously reported; made in house; host or cells: Escherichia coli BL21-CodonPlus-RP (ERα LBD); the probe is a synthetic peptide
T1 sequence (P03372 302-552): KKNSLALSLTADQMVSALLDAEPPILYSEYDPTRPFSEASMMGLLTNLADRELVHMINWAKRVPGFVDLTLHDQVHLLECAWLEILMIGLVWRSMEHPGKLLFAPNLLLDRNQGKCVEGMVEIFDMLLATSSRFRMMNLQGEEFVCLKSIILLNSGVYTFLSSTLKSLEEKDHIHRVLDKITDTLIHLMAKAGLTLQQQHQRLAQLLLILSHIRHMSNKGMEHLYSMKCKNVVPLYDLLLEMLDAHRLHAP
Method: The binding activity of cHLH‐ERα was examined by fluorescence polarization (FP) analysis.^[ [26], [29] ^] The cHLH peptides were labeled with tetramethylrhodamine (TMR) to provide the fluorescent cHLH peptide TMR‐cHLH‐ERα, and fluorescent TMR‐YT1‐RS as a negative control (Figure 1, Figure S2, Supporting Information).
4. Fluorescence Polarization
The binding activity of the ERα-LBD was examined with 20 nM FL-SRC1Box2 (CH3CO- […]
C(FL)[…]-NH2; FL: Fluorescein) with 10 µM 17β-estradiol in 20 mM
Tris-HCl (pH 8.0), 25 mM NaCl, 10%(v/v) Glycerol, 1 mM TCEP as described. The concentration of FL-SRC1Box2 labeled with Fluorescein and TMR-cHLH-ERα and YT1-RS were determined from the absorption of Fluorescein or Tetramethylrhodamine. The respective peptide was incubated with ERα-LBD for 30 min in 20 mM Tris-HCl (pH 8.0), 25 mM NaCl with 1 mM 17β-estradiol, and the mixture was transferred into a 384-well microtiter well (Non-binding, Black, greiner bio -one) and the fluorescence polarization was measured on a spectrofluorometer (SpectraMax iD5, Molecular Devices) at 20 °C. The KD values were analyzed via a quadratic binding equation (Fig S5A, S5B) with the data fit to calculate by using KaleidaGraph 4.0 as described elsewhere. The IC50 value was estimated as 7.1 µM derived from four parameter logistic equation (Fig. S 5C). […]

[2] = system: MCF‐7 breast cancer cells; test: WST‐1 cell viability assay, 17β‐estradiol‐dependent proliferation; format: cell-based; details: WST‐1 assay, 3.125 to 25 μM peptide, 10 nM 17β‐estradiol, 72 h
Method: Next, we examined the inhibitory activities of the peptides for the 17β‐estradiol‐dependent proliferation of MCF‐7 breast cancer cells using the WST‐1 assay (Figure 2D). The MCF‐7 cells were incubated with the serially diluted peptides cHLH‐ERα or YT1‐RS in the presence of 10 nM 17β‐estradiol.
For cell viability assay,^[ [35] ^] ER‐positive MCF‐7 cancer cells were grown in the recommended media Dulbecco's modified Eagle medium (DMEM) supplemented with 10% heat‐inactivated fetal bovine serum and with 1% penicillin–streptomycin (Gibco) in a humidified environment with 5% CO2. These cells were incubated in 96‐well plates (Corning) at 5,000 cells/well and cultured for 24 h. The cells were treated with 10 nM 17β‐estradiol for 1 h, then a various concentrations of peptides were added. After culturing the cells for 72 h, the proliferation f cells was measured by using WST‐1 reagent (Roche) according to the standard protocols. The absorbance was measured by using a microplate reader (Model 680, Bio‐Rad). Reliability of the cell viability assay was confirmed by using Tamoxifen (nacalai tesque) as a control.

[3] = system: human ERα and the transcriptional coactivator SRC1; test: Yeast reporter assay (lacZ, β‐galactosidase) for ERα–SRC1 antagonism; format: cell-based; details: 100 μM peptide, 17β‐estradiol (10 and 100 nM), 18 h, 30 °C
Source text: The expression plasmids for human ERα and the transcriptional coactivator SRC1 were transformed, along with the lacZ reporter plasmid carrying the estrogen response element (RE).^[ [13] ^] The production of ERα and SRC1 was regulated by the galactose‐inducible GAL1‐10 promoter. In response to 17β‐estradiol, ERα, and SRC1 formed a complex on the RE, inducing the ligand‐dependent expression of β‐galactosidase (Figure S8, Supporting Information). The genes encoding the major cell wall mannoproteins Cwp1p and Cwp2p were deleted,^[ [30] ^] probably allowing the cHLH peptides to access the cell membrane by passing through the less dense cell wall of the yeast strain.^[ [32] ^] The effect of the cHLH peptide on the ERα–SRC1 interaction was examined in the presence of 17β‐estradiol (10 and 100 nM).
As previously reported,^[ [30] ^] the yeast strain ERα cwp1Δcwp2Δ was cultured on agar plates with synthetic dextrose (glucose) complete (SDC) dropout medium lacking tryptophan, leucine, and uracil (SDC‐Trp, Leu, Ura; 2% glucose, 2% agar) for single colony isolation. […] Absorbance at wavelengths of 405 and 595 nm was measured using Model 680 Microplate Reader (BioRad Lab., Inc.) to estimate the β‐galactosidase activity as the amount of o‐nitrophenol (ONP) produced and yeast cell density, respectively. The relative β‐galactosidase activity in each well was calculated as A405/A595. […]

Compound: CC(C)C[C@@H]1NC(=O)[C@H](C)NC(=O)[C@H](C)NC(=O)[C@H](CC(C)C)NC(=O)[C@H](CCCCN)NC(=O)CNC(=O)CNC(=O)CNC(=O)CNC(=O)CNC(=O)CNC(=O)CNC(=O)[C@H](CCC(=O)O)NC(=O)[C@H](CC(C)C)NC(=O)[C@H](CCCNC(=N)N)NC(=O)[C@H](CCCNC(=N)N)NC(=O)[C@H](CC(C)C)NC(=O)[C@H](CCC(=O)O)NC(=O)[C@H](CCCNC(=N)N)NC(=O)[C@H](CCC(=O)O)NC(=O)[C@H](CC(C)C)NC(=O)[C@H](CCCNC(=N)N)NC(=O)[C@H](CCCNC(=N)N)NC(=O)[C@H](CC(C)C)NC(=O)[C@H](CCC(=O)O)NC(=O)[C@H](CCCNC(=N)N)NC(=O)[C@H](C)NC(=O)CNC(=O)CSC[C@@H](C(N)=O)NC(=O)[C@H](Cc2ccc(O)cc2)NC(=O)[C@H](C)NC(=O)[C@H](CCCCN)NC(=O)[C@H](CC(C)C)NC(=O)[C@H](CC(C)C)NC(=O)[C@H](CC(C)C)NC(=O)[C@H](CC(C)C)NC(=O)[C@H](CCCCN)NC(=O)[C@H](CC(C)C)NC(=O)[C@H](CCCCN)NC1=O [cHLH‐ERα] ({CH2CO}-GARELRRLERELRRLEGGGGGGGKLAALKLKLLLLKAYC-NH2; thioether N-39)
- IC50 [1]: 7.1 µM
- inhibitory activity for the 17β‐estradiol‐dependent proliferation of MCF‐7 cells [2]: inhibited the proliferation of MCF‐7 cells dose‐dependently
- inhibition of transcriptional activity (β‐galactosidase) in yeast reporter assay [3]: significantly inhibited transcriptional activity
